The results in this text go back to US20250257061A1, “COMPOSITIONS AND METHODS FOR TREATING CANCER AND REDUCING WNT MEDIATED EFFECTS” (StemSynergy Therapeutics, Inc., priority 2024, published 2025).

Where two headings read alike, the source gives them in different places. Where only a bound is given, the exact number is not on record here.

Test [1] concerns Wnt reporter (TCF/LEF1 promoter). The experiment in a line: HEK STF293 Wnt reporter (TOPFlash) luciferase assay, Steady Glo normalised to Cell Titer. It is filed as cell-based, human. A digest of the protocol:
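HEK STF293 cells carrying a TCF/LEF1-driven firefly luciferase were stimulated with Wnt3a-conditioned media (1:1) and compound at final 100 μM to 1 nM. Next day, lysates were read by Steady Glo luminescence. EC50 was derived from Steady Glo divided by Cell Titer to normalize for cell number.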

Test [2] deals with Wnt-dependent HCT116 cell line. The test is described as follows: Viability assay using Wnt-dependent HCT116 cell line (Cell Titer Glo). It is filed as cell-based. A digest of the protocol:
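HCT116 cells at 2,500 cells/well were treated on day 2 with DMSO-diluted compounds further diluted 500-fold in medium, giving a final 0.1% DMSO. Viability was read on day 5 by Cell Titer Glo luminescence.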

Where [3] appears, read: Homo sapiens, STF/293, Examples for Formulae (I), (II), and (III), HEK STF293 cells, Wnt3a-conditioned media, read-out: TOPFlash IC50 category.
Setting [4] is: Homo sapiens, HCT-116, Examples for Formulae (I), (II), and (III), HCT116 cells, read-out: Viability IC50 category.
Setting [5] is: Homo sapiens, STF/293, Examples for Formulae (VIII), (IX), and (X), HEK STF293 cells, Wnt3a-conditioned media, read-out: TOPFlash IC50 category.
Where [6] appears, read: Homo sapiens, HCT-116, Examples for Formulae (VIII), (IX), and (X), HCT116 cells, read-out: Viability IC50 category.
The mark [7] stands for this setting: Examples for Formulae (IV), (V), (VI), and (VII), HEK STF293 cells, Wnt3a-conditioned media, read-out: TOPFlash IC50 category.
The mark [8] stands for this setting: Examples for Formulae (IV), (V), (VI), and (VII), HCT116 cells, read-out: Viability IC50 category.
[9] abbreviates: Homo sapiens, STF/293, Examples for Formulae (IV), (V), (VI), and (VII), HEK STF293 cells, Wnt3a-conditioned media, read-out: TOPFlash IC50 category.
The mark [10] stands for this setting: Homo sapiens, HCT-116, Examples for Formulae (IV), (V), (VI), and (VII), HCT116 cells, read-out: Viability IC50 category.
Where [11] appears, read: Homo sapiens, STF/293, read-out: TOPFlash IC50 category.
Setting [12] is: Homo sapiens, HCT-116, read-out: Viability IC50 category.

In the case of `Cc1nn(-c2ccccc2Cl)c(C(F)F)c1C(=O)Nc1nc(-c2ccccn2)cs1` [Example 12], the values for the IC50 in test [1] (setting [3]) and in test [2] (setting [4]) were 200 to 500 nM and 500 to 1000 nM, respectively.
With `O=C(Nc1nc(-c2ccccn2)cs1)c1ccn(Cc2ccc(F)cc2)c(=O)c1` [Example 9], the IC50 in test [1] (setting [5]) and in test [2] (setting [6]) was 1000 to 10000 nM throughout.
Take `CN(c1ncc(C(=O)Nc2nc(-c3ccccn3)cs2)o1)S(=O)(=O)c1ccc(Cl)cc1` [Example 38]: the IC50 fell in the range of 200 to 500 nM in test [1] (setting [7]) and 500 to 1000 nM in test [2] (setting [8]).
`O=C(Nc1nc(-c2ccccn2)cs1)c1ocnc1-c1ccccc1` [Example 2]: the IC50 in test [1] (setting [9]) is less than 200 nM; in test [2] (setting [10]) it was 200 to 500 nM.
Regarding `Cc1onc(-c2c(Cl)cccc2Cl)c1C(=O)Nc1nc(-c2ccccn2)cs1` [Example 29], the IC50 in test [1] (setting [11]) and in test [2] (setting [12]) was less than 200 nM throughout.
Take `O=C(Nc1nc(-c2ccccn2)cs1)c1cn(-c2ccccc2)nc1-c1ccccc1` [Example 14]: the IC50 is less than 200 nM in test [1] (setting [3]) and 200 to 500 nM in test [2] (setting [4]).
As for `CS(=O)(=O)c1ccc(-n2nccc2C(=O)Nc2nc(-c3ccccn3)co2)cc1` [Example 1], the IC50 is 200 to 500 nM in test [1] (setting [5]) and less than 200 nM in test [2] (setting [6]).
For `CS(=O)(=O)c1ccccc1-c1ncoc1C(=O)Nc1nc(-c2ccccn2)cs1` [Example 44], the IC50 lay in the range of 1000 to 10000 nM in test [1] (setting [7]) and 500 to 1000 nM in test [2] (setting [8]).
As for `CN(C)C(=O)c1ccc(-c2ncoc2C(=O)Nc2nc(-c3ccccn3)cs2)cc1` [Example 41], the IC50 in test [1] (setting [9]) and in test [2] (setting [10]) was 500 to 1000 nM in each case.
For the compound `CN(c1ncc(C(=O)O)o1)S(=O)(=O)c1ccc(Cl)cc1` [Example 37], the IC50 is less than 200 nM in test [1] (setting [7]) and 200 to 500 nM in test [2] (setting [8]).
`Cc1onc(-c2c(F)cccc2Cl)c1C(=O)Nc1nc(-c2ccccn2)cs1` [Example 14]: the IC50 is less than 200 nM in test [1] (setting [9]) and 200 to 500 nM in test [2] (setting [10]).
On to `O=C(Nc1nc(-c2ccccn2)cs1)c1cc(Cl)c(=O)n(Cc2ccc(C(F)(F)F)cc2)c1` [Example 8], for which the figures for the 50% inhibitory concentration (IC50) in test [1] (setting [5]) and in test [2] (setting [6]) were 500 to 1000 nM and 200 to 500 nM, respectively.
As for `Cc1onc(-c2ccccc2Cl)c1C(=O)Nc1nc(-c2ccccn2)cs1` [Example 28], the IC50 in test [1] (setting [11]) and in test [2] (setting [12]) was 200 to 500 nM throughout.
With `Cc1cc(C(=O)Nc2nc(-c3ncccc3C)co2)n(-c2ccc(S(C)(=O)=O)cc2)n1` [Example 19], the IC50 in test [1] (setting [5]) is less than 200 nM; in test [2] (setting [6]), 200 to 500 nM.
In the case of `O=C(Nc1nc(-c2ccccn2)cs1)c1ccc(=O)n(Cc2ccccc2Cl)c1` [Example 5], the IC50 in test [1] (setting [5]) and in test [2] (setting [6]) was 200 to 500 nM in each case.
In the case of `O=C(Nc1nc(-c2ccccn2)cs1)c1ocnc1-c1ccc(C(=O)N2CCOCC2)cc1` [Example 42], the 50% inhibitory concentration (IC50) in test [1] (setting [9]) and in test [2] (setting [10]) was 500 to 1000 nM each time.
Take `COc1cccc(-c2noc(C)c2C(=O)Nc2nc(-c3ccccn3)cs2)c1` [Example 18]: the IC50 in test [1] (setting [9]) was 200 to 500 nM; in test [2] (setting [10]) it was 500 to 1000 nM.
As to `CN(C(=O)c1ccc(C(F)(F)F)cc1)c1ncc(C(=O)Nc2nc(-c3ccccn3)cs2)o1` [Example 35], the IC50 in test [1] (setting [7]) is 500 to 1000 nM; in test [2] (setting [8]), 1000 to 10000 nM.
Turning to `Cc1onc(-c2ccccc2)c1C(=O)Nc1nc(-c2ccccn2)cs1` [Example 27], the IC50 in test [1] (setting [11]) and in test [2] (setting [12]) was 200 to 500 nM throughout.
As for `CN(C(=O)c1ccccc1F)c1ncc(C(=O)Nc2nc(-c3ccccn3)cs2)o1` [Example 36], the IC50 in test [1] (setting [9]) is 200 to 500 nM; in test [2] (setting [10]), 500 to 1000 nM.
`COc1cc(F)ccc1-c1ncoc1C(=O)Nc1nc(-c2ccccn2)cs1` [Example 46]: the IC50 in test [1] (setting [7]) and in test [2] (setting [8]) was 500 to 1000 nM throughout.
As to `Cc1nn(Cc2ccccc2)c(C)c1C(=O)Nc1nc(-c2ccccn2)cs1` [Example 4], the figures for the IC50 in test [1] (setting [3]) and in test [2] (setting [4]) were 500 to 1000 nM and 1000 to 10000 nM, respectively.
With `O=C(Nc1nc(-c2ccccn2)cs1)c1oc(CO)nc1-c1ccc(F)cc1` [Example 70, 4-(4-fluorophenyl)-2-(hydroxymethyl)-N-(4-(pyridin-2-yl)thiazol-2-yl)oxazole-5-carboxamide], the IC50 in test [1] (setting [11]) fell in the range of 500 to 1000 nM; in test [2] (setting [12]), 200 to 500 nM.
As for `CN(c1nc(C(F)(F)F)c(C(=O)Nc2nc(-c3ccccn3)cs2)o1)S(=O)(=O)c1ccccc1Cl` [Example 56], the IC50 in test [1] (setting [7]) and in test [2] (setting [8]) was 500 to 1000 nM each time.
Consider `CN1CCN(Cc2nc(-c3ccc(F)cc3)c(C(=O)Nc3nc(-c4ccccn4)cs3)o2)CC1` [Example 71], for which the IC50 in test [1] (setting [9]) and in test [2] (setting [10]) was 200 to 500 nM throughout.
For `Cc1nc(N(C)S(=O)(=O)c2ccc(C(F)(F)F)cc2)oc1C(=O)Nc1nc(-c2ccccn2)cs1` [Example 50], the IC50 in test [1] (setting [7]) and in test [2] (setting [8]) was 200 to 500 nM each time.
`Cc1nn(Cc2ccc(C(F)(F)F)cc2)c(C)c1C(=O)Nc1nc(-c2ccccn2)cs1` [Example 16]: the IC50 in test [1] (setting [3]) and in test [2] (setting [4]) was 500 to 1000 nM in each case.
Take `O=C(Nc1nc(-c2ccccn2)cs1)c1ocnc1-c1ccc(F)cc1F` [Example 12]: the half-inhibitory concentration (IC50) in test [1] (setting [9]) and in test [2] (setting [10]) was 200 to 500 nM each time.
Turning to `COc1ccc(S(=O)(=O)N(C)c2ncc(C(=O)Nc3nc(-c4ccccn4)cs3)o2)cc1` [Example 39], the IC50 in test [1] (setting [9]) and in test [2] (setting [10]) was 500 to 1000 nM throughout.
Consider `O=C(Nc1nc(-c2ccccn2)cs1)c1c(C(F)(F)F)nn(-c2ccccc2)c1C(F)(F)F` [Example 17], for which the IC50 in test [1] (setting [3]) and in test [2] (setting [4]) was 1000 to 10000 nM throughout.
Take `CN(c1nc(-c2ccc(S(C)(=O)=O)cc2)c(C(=O)Nc2nc(-c3ccccn3)cs2)o1)S(=O)(=O)c1ccc(C(F)(F)F)cc1` [Example 75]: the figures for the IC50 in test [1] (setting [7]) and in test [2] (setting [8]) were 200 to 500 nM and less than 200 nM, respectively.
